Data published in patent US9179674B2, “Macrocyclic picolinamide compounds with fungicidal activity” (DOW AGROSCIENCES LLC, priority 2013, dated 2015).
Read-outs that look alike come from different tables or passages of the source.

Assays:
[1] = system: Mycosphaerella graminicola; Anamorph: Septoria tritici; test: Leaf Blotch of Wheat fungicidal activity (SEPTTR); format: in vivo; settings: Zymoseptoria tritici; for pest or weed control at 100 ppm: rate 100 ppm; for pest or weed control at 121.5 g/ha: rate 121.5 g/H
Description: Evaluation of Fungicidal Activity: Leaf Blotch of Wheat (Mycosphaerella graminicola; Anamorph: Septoria tritici; Bayer code […]) Technical grades of materials were dissolved in acetone, which were then mixed with nine volumes of water containing 110 ppm Triton X-100. The fungicide solutions were applied onto wheat seedlings using an automated booth sprayer to run-off. All sprayed plants were allowed to air dry prior to further handling. All fungicides were evaluated using the aforementioned method for their activity vs. all target diseases. Wheat leaf blotch and brown rust activity were also evaluated using track spray applications, in which case the fungicides were formulated as EC formulations, containing 0.1% Trycol 5941 in the spray solutions. Wheat plants (variety Yuma) were grown from seed in a greenhouse in 50% mineral soil/50% soil-less Metro mix until the first leaf was fully emerged, with 7-10 seedlings per pot. These plants were inoculated with an aqueous spore suspension of Septoria tritici either prior to or after fungicide treatments. After inoculation the plants were kept in 100% relative humidity (one day in a dark dew chamber followed by two to three days in a lighted dew chamber at 20° C.) to permit spores to germinate and infect the leaf. The plants were then transferred to a greenhouse set at 20° C. for disease to develop. When disease symptoms were fully expressed on the 1st leaves of untreated plants, infection levels were assessed on a scale of 0 to 100 percent disease severity. Percent disease control was calculated using the ratio of disease severity on treated plants relative to untreated plants.

[2] = system: Puccinia triticina; test: Wheat Brown Rust fungicidal activity (PUCCRT); format: in vivo; settings: Puccinia triticina; for pest or weed control at 100 ppm: rate 100 ppm; for pest or weed control at 121.5 g/ha: rate 121.5 g/H
Description: Technical grades of materials were dissolved in acetone, which were then mixed with nine volumes of water containing 110 ppm Triton X-100. The fungicide solutions were applied onto wheat seedlings using an automated booth sprayer to run-off. All sprayed plants were allowed to air dry prior to further handling. All fungicides were evaluated using the aforementioned method for their activity vs. all target diseases. Wheat leaf blotch and brown rust activity were also evaluated using track spray applications, in which case the fungicides were formulated as EC formulations, containing 0.1% Trycol 5941 in the spray solutions. Wheat plants (variety Yuma) were grown from seed in a greenhouse in 50% mineral soil/50% soil-less Metro mix until the first leaf was fully emerged, with 7-10 seedlings per pot. These plants were inoculated with an aqueous spore suspension of Septoria tritici either prior to or after fungicide treatments. After inoculation the plants were kept in 100% relative humidity (one day in a dark dew chamber followed by two to three days in a lighted dew chamber at 20° C.) to permit spores to germinate and infect the leaf. The plants were then transferred to a greenhouse set at 20° C. for disease to develop. When disease symptoms were fully expressed on the 1st leaves of untreated plants, infection levels were assessed on a scale of 0 to 100 percent disease severity. Percent disease control was calculated using the ratio of disease severity on treated plants relative to untreated plants. Evaluation of Fungicidal Activity: Wheat Brown Rust (Puccinia triticina; Synonym: Puccinia recondite f sp. tritici; Bayer code PUCCRT) Wheat plants (variety Yuma) were grown from seed in a greenhouse in 50% mineral soil/50% soil-less Metro mix until the first leaf was fully emerged, with 7-10 seedlings per pot. These plants were inoculated with an aqueous spore suspension of Puccinia triticina either prior to or after fungicide treatments. After inoculation the plants were kept in a dark dew room at 22° C. with 100% relative humidity overnight to permit spores to germinate and infect the leaf. The plants were then transferred to a greenhouse set at 24° C. for disease to develop. Fungicide formulation, application and disease assessment followed the procedures as described in the Example A.

[3] = 24 h, 1 Day Protectant, read-out: Disease control SEPTTR 1DP
[4] = 72 h, 3 Day Curative, read-out: Disease control SEPTTR 3DC
[5] = 24 h, 1 Day Protectant, read-out: Disease control PUCCRT 1DP
[6] = 72 h, 3 Day Curative, read-out: Disease control PUCCRT 3DC

CCCCCO[C@@H]1[C@@H](Cc2ccc(C)cc2)COC[C@H](NC(=O)c2nccc(OC)c2OC(C)=O)C(=O)O[C@H]1C [Compound F53]
pest or weed control at 100 ppm [1, 3]: 80 to 100% | pest or weed control at 121.5 g/ha [1, 3]: 80 to 100% | pest or weed control at 100 ppm [1, 4]: 80 to 100% | pest or weed control at 121.5 g/ha [1, 4]: 0 to 80% | pest or weed control at 100 ppm [2, 5]: 80 to 100% | pest or weed control at 121.5 g/ha [2, 5]: 80 to 100% | pest or weed control at 100 ppm [2, 6]: 80 to 100% | pest or weed control at 121.5 g/ha [2, 6]: 0 to 80%

CCCCCO[C@@H]1[C@@H](CCc2ccccc2)COC[C@H](NC(=O)c2nccc(OC)c2OC(C)=O)C(=O)O[C@H]1C [Compound F55]
pest or weed control at 100 ppm [1, 3]: 80 to 100% | pest or weed control at 100 ppm [1, 4]: 80 to 100% | pest or weed control at 100 ppm [2, 5]: 80 to 100% | pest or weed control at 100 ppm [2, 6]: 80 to 100%

COc1ccnc(C(=O)N[C@H]2COC[C@H](CCc3ccccc3)[C@@H](OC(=O)C3CC3)[C@H](C)OC2=O)c1OC(C)=O [Compound F57]
pest or weed control at 100 ppm [1, 3]: 80 to 100% | pest or weed control at 121.5 g/ha [1, 3]: 80 to 100% | pest or weed control at 100 ppm [1, 4]: 80 to 100% | pest or weed control at 121.5 g/ha [1, 4]: 80 to 100% | pest or weed control at 100 ppm [2, 5]: 80 to 100% | pest or weed control at 121.5 g/ha [2, 5]: 80 to 100% | pest or weed control at 100 ppm [2, 6]: 80 to 100% | pest or weed control at 121.5 g/ha [2, 6]: 0 to 80%

COc1ccnc(C(=O)N[C@H]2COC[C@H](CCc3ccccc3)[C@@H](Oc3ccc(C)cc3)[C@H](C)OC2=O)c1OC(C)=O [Compound F58]
pest or weed control at 100 ppm [1, 3]: 80 to 100% | pest or weed control at 121.5 g/ha [1, 3]: 80 to 100% | pest or weed control at 100 ppm [1, 4]: 80 to 100% | pest or weed control at 121.5 g/ha [1, 4]: 80 to 100% | pest or weed control at 100 ppm [2, 5]: 80 to 100% | pest or weed control at 121.5 g/ha [2, 5]: 80 to 100% | pest or weed control at 100 ppm [2, 6]: 80 to 100% | pest or weed control at 121.5 g/ha [2, 6]: 0 to 80%

COc1ccnc(C(=O)N[C@H]2COC[C@H](Cc3ccc(F)cc3)[C@@H](Oc3ccccc3)[C@H](C)OC2=O)c1OC(C)=O [Compound F59]
pest or weed control at 100 ppm [1, 3]: 80 to 100% | pest or weed control at 121.5 g/ha [1, 3]: 80 to 100% | pest or weed control at 100 ppm [1, 4]: 80 to 100% | pest or weed control at 121.5 g/ha [1, 4]: 80 to 100% | pest or weed control at 100 ppm [2, 5]: 80 to 100% | pest or weed control at 121.5 g/ha [2, 5]: 80 to 100% | pest or weed control at 100 ppm [2, 6]: 80 to 100% | pest or weed control at 121.5 g/ha [2, 6]: 0 to 80%

COc1ccnc(C(=O)N[C@H]2COC[C@H](Cc3ccc(C)cc3)[C@@H](OC(=O)C3CC3)[C@H](C)OC2=O)c1OC(C)=O [Compound F61]
pest or weed control at 100 ppm [1, 3]: 80 to 100% | pest or weed control at 121.5 g/ha [1, 3]: 80 to 100% | pest or weed control at 100 ppm [1, 4]: 80 to 100% | pest or weed control at 121.5 g/ha [1, 4]: 0 to 80% | pest or weed control at 100 ppm [2, 5]: 80 to 100% | pest or weed control at 121.5 g/ha [2, 5]: 80 to 100% | pest or weed control at 100 ppm [2, 6]: 80 to 100% | pest or weed control at 121.5 g/ha [2, 6]: 0 to 80%

COc1ccnc(C(=O)N[C@H]2COC[C@H](Cc3ccc(C)cc3)[C@@H](OCCCC(F)(F)F)[C@H](C)OC2=O)c1OC(C)=O [Compound F62]
pest or weed control at 100 ppm [1, 3]: 80 to 100% | pest or weed control at 121.5 g/ha [1, 3]: 80 to 100% | pest or weed control at 100 ppm [1, 4]: 80 to 100% | pest or weed control at 121.5 g/ha [1, 4]: 80 to 100% | pest or weed control at 100 ppm [2, 5]: 80 to 100% | pest or weed control at 121.5 g/ha [2, 5]: 80 to 100% | pest or weed control at 100 ppm [2, 6]: 80 to 100% | pest or weed control at 121.5 g/ha [2, 6]: 0 to 80%

COc1ccnc(C(=O)N[C@H]2COC[C@H](Cc3ccc(C)cc3)[C@@H](Oc3ccccc3)[C@H](C)OC2=O)c1OC(C)=O [Compound F63]
pest or weed control at 100 ppm [1, 3]: 80 to 100% | pest or weed control at 121.5 g/ha [1, 3]: 80 to 100% | pest or weed control at 100 ppm [1, 4]: 80 to 100% | pest or weed control at 121.5 g/ha [1, 4]: 80 to 100% | pest or weed control at 100 ppm [2, 5]: 80 to 100% | pest or weed control at 121.5 g/ha [2, 5]: 80 to 100% | pest or weed control at 100 ppm [2, 6]: 80 to 100% | pest or weed control at 121.5 g/ha [2, 6]: 0 to 80%

COc1ccnc(C(=O)N[C@H]2COC[C@H](Cc3ccc(C)cc3)[C@@H](OC3CCCC3)[C@H](C)OC2=O)c1OC(C)=O [Compound F64]
pest or weed control at 100 ppm [1, 3]: 80 to 100% | pest or weed control at 100 ppm [1, 4]: 80 to 100% | pest or weed control at 100 ppm [2, 5]: 80 to 100% | pest or weed control at 100 ppm [2, 6]: 80 to 100%

COc1ccnc(C(=O)N[C@H]2COC[C@H](Cc3ccc(C(F)(F)F)cc3)[C@@H](OCC(C)C)[C@H](C)OC2=O)c1OC(C)=O [Compound F65]
pest or weed control at 100 ppm [1, 3]: 80 to 100% | pest or weed control at 121.5 g/ha [1, 3]: 80 to 100% | pest or weed control at 100 ppm [1, 4]: 80 to 100% | pest or weed control at 121.5 g/ha [1, 4]: 80 to 100% | pest or weed control at 100 ppm [2, 5]: 80 to 100% | pest or weed control at 121.5 g/ha [2, 5]: 80 to 100% | pest or weed control at 100 ppm [2, 6]: 80 to 100% | pest or weed control at 121.5 g/ha [2, 6]: 0 to 80%
